# From patent US20210317140A1, “Heterocyclic Compounds and Methods of Use” (MEDIVATION TECHNOLOGIES, INC, priority 2013, published 2021)
# Tests used:
# BMX/ETK = target: T1, BMX/ETK (Homo sapiens, UniProt P51813); test: BMX/ETK kinase profiling (BTK protocol); assay type: biochemical; settings: for BMX/ETK @ 0.3 μM (% Inh): 0.3 μM compound; for IC50: 10 dose IC50
# T1 construct: purchased Reaction Biology Corporation
# T1 sequence (P51813 1-675): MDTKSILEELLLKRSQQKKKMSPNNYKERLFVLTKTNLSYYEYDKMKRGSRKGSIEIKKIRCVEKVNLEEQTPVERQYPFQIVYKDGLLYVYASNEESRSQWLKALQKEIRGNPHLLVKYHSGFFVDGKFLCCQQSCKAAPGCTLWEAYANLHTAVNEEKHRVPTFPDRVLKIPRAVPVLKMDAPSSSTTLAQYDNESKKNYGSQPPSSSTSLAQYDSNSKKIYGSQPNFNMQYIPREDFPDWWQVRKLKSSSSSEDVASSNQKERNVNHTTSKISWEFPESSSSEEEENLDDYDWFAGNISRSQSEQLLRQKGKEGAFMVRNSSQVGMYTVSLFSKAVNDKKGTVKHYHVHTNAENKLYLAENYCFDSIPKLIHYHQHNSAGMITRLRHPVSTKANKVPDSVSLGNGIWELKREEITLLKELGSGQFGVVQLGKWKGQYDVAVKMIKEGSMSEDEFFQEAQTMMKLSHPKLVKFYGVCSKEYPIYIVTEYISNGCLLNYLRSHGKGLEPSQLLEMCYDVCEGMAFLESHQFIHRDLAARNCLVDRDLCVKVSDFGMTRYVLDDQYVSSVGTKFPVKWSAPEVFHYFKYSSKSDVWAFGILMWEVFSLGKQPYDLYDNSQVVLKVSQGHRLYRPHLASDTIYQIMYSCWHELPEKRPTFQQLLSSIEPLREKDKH
# Method: BTK assay: In vitro profiling protein kinases was performed using the “HotSpot” assay platform. Briefly, specific kinase/substrate pairs along with required cofactors were prepared in reaction buffer. Compounds were prepared as 10 mM stock solutions in DMSO. Compounds were delivered into the reaction, followed 15-20 minutes later by addition of a mixture of ATP (Sigma, St. Louis Mo.) and ^33P ATP (Perkin Elmer, Waltham Mass.) to a final concentration of 10 μM. Reactions were carried out at RT for 120 min, followed by spotting of the reactions onto P81 ion exchange filter paper (Whatman Inc., Piscataway, N.J.). Unbound phosphate was removed by extensive washing of filters in 0.75% Phosphoric acid. […] IC50 values and curve fits were obtained using Prism (GraphPad Software). Buffer Conditions: 20 mM Hepes (pH 7.5), 10 mM MgCl2, 1 mM EGTA, 0.02% Brij35, 0.02 mg/mL BSA, 0.1 mM Na3VO4, 2 mM DTT, 1% DMSO.
# Compounds of the invention were profiled in a 10 dose IC50 panel against BMX/ETK, ITK and TEC kinases, provided by Reaction Biology Corporation, applied to the BTK protocol provided in Example B1.
# PI3Kγ = target: T2, PI3Kγ (Homo sapiens, UniProt P48736); test: PI3Kγ isoform profiling (PI3Kδ protocol); assay type: biochemical; settings: for PI3Kγ @ 0.3 μM (% Inh): 0.3 μM compound; for IC50: 10 dose IC50
# T2 construct: purchased Reaction Biology Corporation
# T2 sequence (P48736 whole entry, canonical isoform): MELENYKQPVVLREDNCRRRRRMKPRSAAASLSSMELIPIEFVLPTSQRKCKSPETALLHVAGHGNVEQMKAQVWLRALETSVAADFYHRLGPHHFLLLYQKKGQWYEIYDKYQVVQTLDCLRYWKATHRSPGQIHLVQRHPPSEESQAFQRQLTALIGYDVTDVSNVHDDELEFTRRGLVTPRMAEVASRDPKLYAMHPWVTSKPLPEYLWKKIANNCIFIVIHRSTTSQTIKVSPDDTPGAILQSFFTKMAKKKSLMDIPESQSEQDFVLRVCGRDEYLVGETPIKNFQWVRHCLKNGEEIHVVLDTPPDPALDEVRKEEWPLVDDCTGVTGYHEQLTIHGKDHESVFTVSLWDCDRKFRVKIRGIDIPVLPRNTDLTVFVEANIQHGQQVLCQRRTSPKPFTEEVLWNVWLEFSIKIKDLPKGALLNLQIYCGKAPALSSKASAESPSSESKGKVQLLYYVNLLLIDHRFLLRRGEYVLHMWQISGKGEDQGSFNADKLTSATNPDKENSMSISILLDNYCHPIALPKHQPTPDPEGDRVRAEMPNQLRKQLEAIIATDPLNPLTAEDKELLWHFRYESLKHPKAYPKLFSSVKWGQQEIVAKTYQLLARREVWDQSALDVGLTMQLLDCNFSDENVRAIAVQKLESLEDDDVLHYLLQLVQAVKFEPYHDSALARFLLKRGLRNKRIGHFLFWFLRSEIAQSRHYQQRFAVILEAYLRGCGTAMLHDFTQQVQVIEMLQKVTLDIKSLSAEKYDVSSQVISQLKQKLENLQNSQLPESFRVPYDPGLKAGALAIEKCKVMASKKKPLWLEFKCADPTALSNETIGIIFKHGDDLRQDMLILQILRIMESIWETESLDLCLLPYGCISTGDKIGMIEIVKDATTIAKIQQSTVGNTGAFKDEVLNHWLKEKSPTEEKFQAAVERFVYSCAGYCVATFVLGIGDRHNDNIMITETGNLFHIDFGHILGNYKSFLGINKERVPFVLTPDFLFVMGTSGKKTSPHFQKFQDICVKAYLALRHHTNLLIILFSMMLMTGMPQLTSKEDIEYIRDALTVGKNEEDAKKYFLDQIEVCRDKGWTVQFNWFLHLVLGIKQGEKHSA
# Source text: PI3Kδ assay: The PIP3 product is detected by displacement of biotin-PIP3 from an energy transfer complex consisting of Europium labeled anti-GST monoclonal antibody, a GST-tagged pleckstrin homology (PH) domain, biotinylated PIP3 and Streptavidin-Allophycocyanin (APC). Excitation of Europium in the complex results in an energy transfer to the APC and a fluorescent emission at 665 nm. The PIP3 product formed by PI 3-Kinase(h) activity displaces biotin-PIP3 from the complex resulting in a loss of energy transfer and thus a decrease in signal. This is a 3-step reaction: First, the kinase reaction with PIP2 substrate is carried out in the presence of ATP (10 μM), and the reaction is quenched with stop Solution, and then finally detect by adding Detection Mixture followed by incubation (10 min). Reaction procedure: 1) Prepare substrate in freshly prepared Reaction Buffer. 2) Deliver kinase into the substrate solution and gently mix. 3) Deliver compounds in 100% DMSO (1 μM) into the kinase reaction mixture by Acoustic technology (Echo550; nanoliter range), incubate for 10 min at RT. 4) Deliver ATP into the reaction mixture to initiate the reaction. 5) Incubate for 30 min at 30° C. 6) Quench the reaction with Stop Solution. 7) Add Detection Mixture, and incubate for overnight. 8) Measure HTRF: Ex=320 nm, ratio of Em=615 nm and Em=665 nm. The emission ratio is converted into μM PIP3 production based on PIP3 standard curves. The nonlinear regression to obtain the standard curve and IC50 values are performed using Graphpad Prism software. Assay Buffer: HEPES 50 mM (pH7.0), NaN3 0.02%, BSA 0.01%, Orthovanadate 0.1 mM, 1% DMSO. Detection buffer: HEPES 10 mM (pH7.0), BSA 0.02%, KF 0.16 M, EDTA 4 mM. Substrate: 10 μM PIP2 substrate (PI(4,5)P2).
# Compounds of the invention were profiled in a 10 dose IC50 panel against PI3Kα, PI3Kβ, and PI3Kγ kinases, provided by Reaction Biology Corporation, applied to the PI3Kδ protocol provided in Example B1.
# SUDHL6 cells = test: Cell anti-proliferation assay ([3H] thymidine); assay type: cell-based; settings: Homo sapiens, SU-DHL-6, IC50 range
# Method: Compounds of the invention were profiled in a B-lymphocyte anti-proliferation assay using SUDHL6 cells. On Day 0, SUDHL cells (7,500) were plated in RPMI media with FBS medium in a 96-well plate. On Day 1, Compounds of the invention were charged on top of the plated cells with a 1% DMSO final concentration. On Day 3, [^3H] Thymidine was added at 100 nCi/well. On Day 4, the cells were harvested using a cell harvester on a GF/C filter mat and dried in a hot air oven. Cell readout was obtained using a scintillation counter, and the activity of the compound was determined as an IC50 value.
SMILES,BMX/ETK @ 0.3 μM (% Inh) (BMX/ETK),PI3Kγ @ 0.3 μM (% Inh) (PI3Kγ),IC50 (BMX/ETK),IC50 (PI3Kγ),IC50 (SUDHL6 cells)
"Nc1ncnc2c1c(-c1cc(O)c(Cl)c(Cl)c1)cn2C1Cc2ccccc2C1 [Compound No. 107, 5-[4-amino-7-(2,3-dihydro-1H-inden-2-yl)-7H-pyrrolo[2,3-d]pyrimidin-5-yl]-2,3-dichlorophenol]",90.55 % Inh,45.49 % Inh,–,–,–
"Nc1ncnc2c1c(-c1cc(O)cc(F)c1)nn2C1Cc2ccccc2C1 [compound 3, 3-(4-amino-1-(2,3-dihydro-1H-inden-2-yl)-1H-pyrazolo[3,4-d]pyrimidin-3-yl)-5-fluorophenol]",–,–,189 nM,53.5 nM,1000 to 10000 nM
"Nc1ncnc2c1c(-c1cc(O)cc(F)c1)nn2C1CCc2ccccc2C1 (stereo not drawn) [compound 6, 3-(4-amino-1-(1,2,3,4-tetrahydronaphthalen-2-yl)-1H-pyrazolo[3,4-d]pyrimidin-3-yl)-5-fluorophenol]",–,–,184 nM,122 nM,1000 to 10000 nM
"C=CC(=O)N1CC(n2nc(-c3cc(O)cc(F)c3)c3c(N)ncnc32)Cc2cc(C)ccc21 (stereo not drawn) [compound 31, 1-(3-(4-amino-3-(3-fluoro-5-hydroxyphenyl)-1H-pyrazolo[3,4-d]pyrimidin-1-yl)-6-methyl-3,4-dihydroquinolin-1(2H)-yl)prop-2-en-1-one]",89.72 % Inh,0.74 % Inh,6400 nM,6460 nM,–
"Nc1ncnc2c1c(-c1cc(O)cc(F)c1)nn2C1Cc2ccc(F)cc2C1 (stereo not drawn) [compound 57, 3-[4-amino-1-(5-fluoro-2,3-dihydro-1H-inden-2-yl)-1H-pyrazolo[3,4-d]pyrimidin-3-yl]-5-fluorophenol]",74.27 % Inh,30.85 % Inh,–,–,–
"Nc1ncnc2c1c(-c1cc(O)c(F)c(Cl)c1)cn2C1Cc2ccccc2C1 [compound 110, 5-[4-amino-7-(2,3-dihydro-1H-inden-2-yl)-7H-pyrrolo[2,3-d]pyrimidin-5-yl]-3-chloro-2-fluorophenol]",92.59 % Inh,47.05 % Inh,–,–,–
"N#Cc1cc(-c2cn(C3Cc4ccccc4C3)c3ncnc(N)c23)cc(O)c1F [compound 115, 5-[4-amino-7-(2,3-dihydro-1H-inden-2-yl)-7H-pyrrolo[2,3-d]pyrimidin-5-yl]-2-fluoro-3-hydroxybenzonitrile]",72.12 % Inh,59.21 % Inh,–,–,–
